The text below walks through data of patent US9926277B2, “Pyridone compounds, pharmaceutical compositions thereof, and their therapeutic use for treating proliferative diseases” (BioTheryX, Inc., priority 2015, dated 2018).

The assay has as its system MDA-MB-231 cells. The assay can be described thus: Viability of MDA-MB-231 cancer cells (CELLTITER, Example B5). The class given is cell-based. The note with it: Homo sapiens, 72 hours incubation, read-out: Cell Viability (%); for viability at 0.005 µM: Conc. 5 nM; for viability at 0.01 µM: Conc. 10 nM; for viability at 0.02 µM: Conc. 20 nM. As to the method:
Compounds A1 and A3 to A6 were tested for their ability to reduce the viability of MDA-MB-231 cells, along with ciclopirox (CPX). MDA-MB-231 is a metastatic human breast cancer cell line. […] Seventy-two hours after incubation, cell viability was measured using CELLTITER® from Promega.

As a reminder, the viability is the share of living cells, or the viability signal relative to a control.

`CCCS(=O)(=O)On1c(C2CCCCC2)cc(C)cc1=O` [Compound A4, 6-Cyclohexyl-4-methyl-2-oxopyridin-1(2H)-yl propane-1-sulfonate]: the viability at 0.005 µM came out at 40.5 ± 11.4%, the viability at 0.01 µM turned out to be 32.3 ± 0.6% and the viability at 0.02 µM turned out to be 29.2 ± 1.7%.

On to `Cc1cc(C2CCCCC2)n(OS(=O)(=O)c2ccccc2)c(=O)c1` [Compound A1, 6-cyclohexyl-4-methyl-2-oxopyridin-1(2H)-yl benzenesulfonate], for which the viability at 0.005 µM was 46.8 ± 8%, the viability at 0.01 µM is 31.1 ± 5.4% and the viability at 0.02 µM worked out at 22.1 ± 4.9%.

With `Cc1cc(C2CCCCC2)n(O)c(=O)c1` [CPX, ciclopirox, reference compound], the viability at 0.005 µM is 43.4 ± 2.2%, the viability at 0.01 µM was determined as 46.3 ± 11.1% and the viability at 0.02 µM is 20.9 ± 1.5%. Moreover, for the setting “Conc. 3 nM”, the viability at 0.003 µM was 60.3 ± 2%.

Regarding `Cc1cc(C2CCCCC2)n(OS(=O)(=O)c2cccs2)c(=O)c1` [Compound A6, 6-Cyclohexyl-4-methyl-2-oxopyridin-1(2H)-yl thiophene-2-sulfonate], the viability at 0.005 µM was found to be 26.7 ± 4%, the viability at 0.01 µM was 31.4 ± 8.4% and the viability at 0.02 µM amounted to 22.1 ± 3.6%.

As to `Cc1cc(C2CCCCC2)n(OS(=O)(=O)c2c(C(C)C)cc(C(C)C)cc2C(C)C)c(=O)c1` [Compound A5, 6-Cyclohexyl-4-methyl-2-oxopyridin-1(2H)-yl 2,4,6-triisopropylbenzenesulfonate], the viability at 0.005 µM worked out at 62.9 ± 9.6%, the viability at 0.01 µM came out at 50.6 ± 6.2% and the viability at 0.02 µM is 40.6 ± 7.1%.

As to `Cc1cc(C2CCCCC2)n(OS(=O)(=O)c2ccc(C(C)C)cc2)c(=O)c1` [Compound A3, 6-Cyclohexyl-4-methyl-2-oxopyridin-1(2H)-yl 4-isopropylbenzenesulfonate], the viability at 0.005 µM worked out at 48.3 ± 4.9%, the viability at 0.01 µM amounted to 34.4 ± 6.9% and the viability at 0.02 µM is 28.4 ± 1.3%.
